Three compounds from patent US20200289495A1, “METHODS OF INHIBITING ENDOTHELIN B RECEPTOR EXPRESSING TUMOR METASTASES” (ENB Therapeutics, Inc., priority 2020, published 2020) can be followed below.

Entries after “also recorded” stand apart in the source; their conditions may differ.

The subject of data set [1] is melanoma cell lines overexpressing ETBR. As to the kind of experiment: Mouse melanoma brain metastasis model (xenografts of ETBR-overexpressing melanoma cell lines). Particulars: 60 mg/kg/day. Format: in vivo, mice. On the procedure:
FIGS. 5A, 5B, 5C, 5D, and 5E. ETBR antagonist inhibits melanoma brain metastasis in mice. […] In this study, lentiviral vectors were used to overexpress ETBR in melanoma cell lines, which were in turn used to implant xenografts in mice.
A192621 inhibits melanoma brain metastasis in mice (FIGS. 5A, 5B, 5C, 5D, and 5E). […] A192621 was administered at a dose of 60 mg/kg/day using a mouse melanoma model. […] In this study, lentiviral vectors were used to overexpress ETBR in melanoma cell lines, which were in turn used to implant xenografts in mice. […]

Data set [2] deals with SKMEL28 human melanoma cells. In words: SKMEL28 human melanoma xenograft growth and lung metastasis in mice. The format is in vivo. On the procedure:
FIGS. 4A and 4B. BQ788 inhibits melanoma growth and metastasis.
B0788 inhibits melanoma growth and metastasis (FIGS. 4A and 4B). […] Mice were implanted with 1×10^6 SKMEL28 human melanoma cells. Tumors were established for 10 days until palpable then 120 ng ([…]) BQ788 dissolved in DMSO was injected IP 3×per week×6 weeks. Mice were then sacrificed and lungs harvested and tumors weighed. A 75% reduction in tumor weight was observed.
(In general: In xenograft studies the graft and the host belong to different species.)

The nature of data set [3]: Body weight of athymic nude mice under intranasal BQ788. Format: in vivo. On the procedure: FIG. 9. ETAR antagonist and Niacinamide mitigate weight loss from BQ788. Six week old athymic nude mice were administered the ETBR antagonist BQ788 intranasally in 20% DMSO at the indicated ascending doses over a period of 42 days. One group was additionally administered the ETAR antagonist Macitentan orally at a dose of 5 mg/kg daily. The drinking water of these mice was supplemented with the B vitamin niacinamide at a concentration of 0.3 mg/mL. […] Co-administration of the ETAR antagonist Macitentan with niacinamide supplementation mitigated this weight loss. […] Co-administration of ETAR antagonists and niacinamide with ETBR antagonists mitigated the adverse effects of ETBR antagonists when administered for therapeutic purposes.
ETAR antagonist and Niacinamide mitigate weight loss from B0788 (FIG. 9). Six week old athymic nude mice (n=3 per group) were administered the ETBR antagonist BQ788 intranasally in 20% DMSO at the indicated ascending doses over a period of 42 days. One group was additionally administered the ETAR antagonist Macitentan orally at a dose of 5 mg/kg daily. The drinking water of these mice was supplemented with the B vitamin niacinamide at a concentration of 0.3 mg/mL. […] Co-administration of the ETAR antagonist Macitentan with niacinamide supplementation mitigated this weight loss. […]

The subject of data set [4] is A375 human melanoma cells. In words: A375 subcutaneous melanoma xenograft in Nu/J nude mice. The format is in vivo. Particulars: Dabrafenib 100 mg/Kg PO daily, alone or + BQ788 600 ng IP TIW; day 11, p<0.05. On the procedure: FIG. 7. BQ788 synergizes with Dabrafenib in vivo. A375 human melanoma cells were implanted subcutaneously into the rear flank of Nu/J nude mice and allowed to grow to 150 mm3-200 mm3 prior to randomization and initiation of treatment. The mice received the following treatments: (1) vehicle (n=8), (2) Dabrafenib 100 mg/Kg PO daily (n=5), and (3) Dabrafenib+BQ788 600 ng IP TIW (n=5).
B0788 synergizes with a bRAF inhibitor in vivo (FIG. 7). A375 human melanoma cells (3×10^6) were implanted subcutaneously into the rear flank of Nu/J nude mice and allowed to grow to 150 mm3-200 mm3 prior to randomization and initiation of treatment. The treatment groups were as follows: (1) vehicle (n=8), Dabrafenib 100 mg/Kg PO daily (n=5), (2) Dabrafenib+BQ788 600 ng IP 3×per week (n=5).

As to `CCCOc1ccc([C@H]2[C@H](C(=O)O)[C@@H](c3ccc4c(c3)OCO4)CN2CC(=O)Nc2c(CC)cccc2CC)cc1` [A192621, (2R,3R,4S)-4-(1,3-benzodioxol-5-yl)-1-[2-(2,6-diethylanilino)-2-oxoethyl]-2-(4-propoxyphenyl)pyrrolidine-3-carboxylic acid], in data set [1], the CNS melanoma tumors entry was “shrinks CNS melanoma tumors”, the brain melanoma metastases entry is “shrinks brain melanoma metastases” and the survival entry was “increases survival”.

In the case of `CCCC[C@@H](NC(=O)[C@@H](Cc1cn(C(=O)OC)c2ccccc12)NC(=O)[C@H](CC(C)(C)C)NC(=O)N1[C@H](C)CCC[C@@H]1C)C(=O)O` [BQ788], the “clearance of lung metastases” value in data set [2] (120 ng (˜60 ug/kg) BQ788 in DMSO IP 3× per week × 6 weeks, lungs vs control mice) is above 95%. In data set [2] (FIGS. 4A and 4B), the “apoptosis in melanoma tumor cells” value was “induces apoptosis”. The “average weight loss relative to baseline body weight” value in data set [3] (BQ788 intranasally in 20% DMSO, ascending doses over 42 days, end of study) was found to be 5%. Further, the “body weight / thriving” value in data set [3] (BQ788 intranasally over 42 days, alone or with Macitentan 5 mg/kg daily orally and niacinamide 0.3 mg/mL in drinking water) was “failed to thrive”.

Consider `CC(C)(C)c1nc(-c2cccc(NS(=O)(=O)c3c(F)cccc3F)c2F)c(-c2ccnc(N)n2)s1` [Dabrafenib], for which the tumor growth result in data set [4] was “retarded the growth of tumors; also recorded: retarded tumor growth”.
